Measured values reported in article PMC8399913, “Development of Arteannuin B Sustained-Release Microspheres for Anti-Tumor Therapy by Integrated Experimental and Molecular Modeling Approaches” (Pharmaceutics, 2021).
Read-outs that look alike come from different tables or passages of the source.

Assays:
[1] = PK study in SD rats (AB plasma concentration by LC-MS); assay type: in vivo, Sprague-Dawley rats; settings: 3.5 mg/kg; for Cmax / half-life: Sprague-Dawley, rat, plasma
Experimental: There were 9 SD rats equally separated into three groups. The first two groups were injected with AB at a dose of 3.5 mg/kg, through different injection routes, either subcutaneous or intramuscular injections. Collect whole blood from the jugular vein of each rat one day before administration and 0, 0.08, 0.16, 0.25, 0.5, 1, 2, 4, 6, and 24 h after administration. The third group was a subcutaneous injection of ABMs with a dose of 50 mg/kg. The whole blood was collected from the jugular vein of each rat one day before the administration and 0.08, 0.25, 0.5, 1, 2, 4, 6, 24, 72, 168, and 240 h after administration. A 1.0 mL disposable syringe was used, and the blood volume was 0.2 mL each time. The whole blood sample was placed in a centrifuge tube (1.5 mL, Xinkang Medical, Taizhou, Jiang Su, China) containing 2000 KIU aprotinin and EDTA-K2 anticoagulant. Turn the centrifuge tube upside down to mix the anticoagulant with the blood thoroughly. Before centrifugation, it should be stored in a pre-cooled CoolRack module (Rack M30, Corning, NY, USA) on wet ice and centrifuged within 15 min after collection. Centrifugation was performed at 4000 rpm, 15 min, 4 °C. After centrifugation, the plasma was separated, the supernatant transferred to the label sample tube (the transfer process needs to be operated on ice), and the sample was checked and stored in the −80 °C refrigerator until analysis.
LC-MS spectrometry (TQ XS, Waters, Milford, MA, USA) was used to detect the plasma concentration of AB. The electrospray ion source (ESI+) in positive ion mode has an ion source temperature of 150 °C, a solvent removal temperature of 500 °C, and a capillary voltage of 0.5 kV. Multiple reaction monitoring (MRM) mass spectrometry parameters are: AB, m/z 249.1→189.1, cone voltage 20 V, collision voltage 10 eV; aripiprazole-D8 (internal reference), m/z 456.3→293.2, the cone voltage is 20 V, and the collision voltage is 25 eV.
SD male rat plasma 50 μL and 200 μL of precipitant (0.1% formic acid in acetonitrile, containing 0.2 ng/mL aripiprazole-D8 as an internal reference) was added into a 96-well plate, and the plate was shaken at 750 rpm (Compact Digital MicroPlate Shaker, Thermo fisher, Waltham, MA, USA) for 10 min. Next, the sample was centrifuged (Legend Micro 21R, Thermo fisher, Waltham, MA, USA) at 4200 rpm for 25 min. After centrifugation, 60 μL of the supernatant was added to a 96-well plate, and then 140 μL of pure water was added, and the plate was shaken at 750 rpm for 5 min before the sample was injected for detection.
HPLC was equipped with a C18 column (Waters, BEH, 130 Å, 2.1 × 50 mm, 1.7 μm), and the mobile phase consisted of elution A (0.1% w/v citric acid in 5%w acetonitrile aqueous solution) and elution B (0.1% w/v citric acid in 95%w acetonitrile aqueous solution) at the ratio of 70:30 v/v. The flow rate was set at 1 mL/min, and the injection volume was 10 μL. The column temperature was set at 60 °C.

[2] = test system: HT-29, HepG2, SGC-7901, A549, K562, B16-F10, and Du145 cells; test: Preliminary experiments: tumor cell proliferation; assay type: cell-based
[3] = parameters: method as in doi:10.1002/cjoc.19830010106; settings: cited from earlier work
[4] = test system: mouse lung cancer metastasis models; test: Preliminary experiments: mouse lung cancer metastasis models; assay type: in vivo
[5] = Tolerance of AB dissolved in Tween-80, ethanol and PEG-40; assay type: in vivo
[6] = test system: A549 cells; test: Anti-tumor cell proliferation activity (MTT method); assay type: cell-based, human; settings: mean ± SD, n = 3
Experimental: The human non-small cell lung cancer (NSCLC) cell line (A549) was from American Type Culture Collection (ATCC, Manassas, VA, USA). RPMI-1640 medium and fetal calf serum (FBS) were from Gibco Life Technologies (Grand Island, NY, USA). A549 cells were inoculated in RPMI 1640 medium (containing 10% FBS) in a 37 °C, 5% CO2 cell incubator for culture and storage.
A549 cells were seeded into a 96-well plate at a concentration of 5 × 10^3 per well. AB and ABMs were prepared with DMSO and a specific solvent to make the final concentration per well was 6.25, 12.5, 25, 50, and 100 μM. Here, the dosage of AB in ABMs is calculated according to the actual cumulative release amount in the solution, which is calculated as 55% in 96 h. In the experiment, the control group consisted of cells treated with DMSO and a specific solvent of ABMs and cells without any treatment. The MTT method was used to measure the optical density (OD) values of the cells at 24, 48, 72, and 96 h after treatment. The inhibition rate (IR) of each group of samples on tumor cell growth was calculated according to the following equation:(6) IR(%)=OD(solvent)−OD(exp)/OD(solvent)×100% where OD(solvent) is the mean OD of the solvent group and OD(exp) is the mean OD of the experimental group.
A dose–response curve could be obtained with different concentrations of the samples on the tumor cell growth inhibition, from which the half-inhibition concentration (IC50) of the sample can be obtained. There are five replicate holes in each group, and the average value of the five holes was taken. Three parallel experiments were carried out for each sample, and the results were expressed as mean ± standard deviation (mean ± SD). According to the inhibition rate of each group, the IC50 of AB and ABMs at each time point was calculated by the statistical software IBM SPSS Statistics 20.

[7] = cited from earlier work
[8] = test system: normal human embryonic liver cells L-02; test: Preliminary experiments: toxicity to normal cells; assay type: cell-based
[9] = test system: A549 xenograft tumor; test: In vivo anti-tumor activity, A549 xenograft tumor model; parameters: species or system BALB/c nude mice; settings: 3 mg/kg once every 3 d; after four weeks
Experimental: A549 xenograft tumor model was obtained by subcutaneously injecting 1 × 10^6 cells (A549) into BALB/c nude mice. When the average size of the tumor reached about 100 mm^3, the tumor-bearing mice were randomly divided into 6 groups (6 mice in each group). The average size of tumors was calculated according to the equation 0.5 × a × b × b (a is the length, b is the width). The 700, 350, and 175 mg/kg dose groups of the ABMs were suspended in a specific solvent and then administered subcutaneously once a week, 4 times in total. […] The vehicle (microsphere without AB) group was given once a week for a total of 4 times. The model (saline) group was given once a day as a control. Meanwhile, a group of mice without any treatment (WT group) was selected as the standard group for comparison. The changes in food intake, water consumption, and mental state of the nude mice were observed and recorded every day after administration. The body weight and tumor size of the tumor-bearing mice were measured twice a week, and the relative tumor volume (RTV) of the nude mice was calculated by Equation (7). RTV = Vt/V0(7) where Vt is the tumor volume at each measurement and V0 is the tumor volume before administration. The relative tumor growth rate T/C (%) was calculated according to the following equation to evaluate the anti-tumor activity of each group. (8) T/C(%)=TRTV/CRTV×100%

For `C=C1C(=O)O[C@@]23[C@H]1CC[C@@H](C)[C@@H]2CC[C@@]1(C)O[C@@H]31` [AB, Arteannuin B], the Cmax ([1]; male SD rats, IM, mean ± SEM) was 74.5 ± 34.2 ng/mL, the half-life ([1]; male SD rats, IM, mean ± SEM, read-out: t1/2 (converted)) was 2.3 h and the Cmax ([1]; male SD rats, SC, mean ± SEM) was 236 ± 100 ng/mL. It also gave a half-life ([1]; male SD rats, SC, mean ± SEM, read-out: t1/2 (converted)) of 1.15 h, an AUClast ([1]; male SD rats, IM, mean ± SEM) of 0.618 ± 0.131 ng·days/mL and an AUClast ([1]; male SD rats, SC, mean ± SEM) of 2.538 ± 0.842 ng·days/mL. For the same compound, the half-life ([1]; male, rats, read-out: elimination half-life (converted)) was roughly 1 h, the “AUClast from subcutaneous injection relative to intramuscular injection” value ([1]; rats) was “about four times that of intramuscular injection” and the “proliferation of tumor cells” value [2] was “inhibit the proliferation”. For the same compound, the antimalarial activity [3] was “no antimalarial activity”, the therapeutic effect [4] was “good therapeutic effect” and the tolerance after administration [5] was “significant intolerance symptoms”. It also gave an IC50 ([6]; 96 h (day four)) of 16.2 ± 4.78 µM, an IC50 ([6]; Homo sapiens, A549, 24 h, 24 h) of 211 ± 63.2 µM and an IC50 ([6]; Homo sapiens, A549, 48 h, 48 h) of 53.1 ± 22.5 µM. For the same compound, the IC50 ([6]; Homo sapiens, A549, 72 h, 72 h) was 27.5 ± 6.71 µM, the IC50 ([6]; Homo sapiens, A549, 96 h, 96 h (day four)) was 16 µM and the elimination half-life [7] was “about 1 h”. For the same compound, the bioavailability ([7]; in animals) was 19–35% and the “toxicity to normal cells” value [8] was “no obvious toxicity”.
For `N.N.[Cl][Pt][Cl]` [DDP, Cis-platinum diamine-dichloride], the “tumor size (weight of dissected tumor)” value [9] was 0.38 ± 0.04 g.
